Read-outs that look alike come from different tables or passages of the source.
Columns and labels:
[1] = Ocular distribution of CDO in rabbits, single dose topical ocular vs. oral; assay type: in vivo, New Zealand White rabbit; details: for concentration at 0.25 h / concentration at 1 h / concentration at 3 h / concentration at 6 h: New Zealand White
Procedure: In New Zealand White rabbit, weighing approximately 1.8 kg, CDO was administered by topical ocular instillation (33 μl/eye) at 10 mg/ml (composition 2 of Example 1), at 100 mg/ml (composition 5 of Example 1) or by oral gavage at 25 mg/kg in aqueous solution (from composition 1 of Example 1). At 15, 60, 180 and 360 minutes post-administration, animals were euthanized and plasma and ocular tissues including retina/choroid and optic nerve were collected.
Bioanalysis of CDO was performed depending on the type of matrix. In the case of plasma, proteins were precipitated using methanol. In the case of tissues, samples were grinded in a Mini Bead Beater using zirconium beads and methanol/water (1:1) (v/v) as solvent. After centrifugation, samples were analyzed by UPLC-MS/MS.
Chromatographic separation was carried out using an Acquity CSH Fluoro Phenyl column (1.7 μm, 50×2.1 mm). Mobile phase consisted of a gradient using 0.1% formic acid in water and acetonitrile from 5% to 45% in 4.5 min at a flow rate of 0.6 ml/min.
With regard to the mass spectrometric detection, the electrospray ionization source worked to record negative ions. Multiple Reaction Monitoring (MRM) acquisition mode of the deprotonated molecular ions was performed. The transition monitored for CDO was m/z 189.0→80.1 with a cone voltage of 45 V and collision energy of 25 eV.

TNF-α mRNA = assay: Anti-inflammatory activity: relative TNF-α mRNA in retinas, streptozotocin diabetic retinopathy model; assay type: in vivo, SD male rats; details: diabetic rats, CDO 10 mg/ml topical 10 μl/eye TID 28 days
Procedure: Diabetes was induced in SD male rats by single intraperitoneal injection of streptozotocin (STZ) at 60 mg/kg body weight in citrate buffer (pH 4.5). Seven days after STZ administration, blood glucose was measured and the level of 250 mg/dl was considered the threshold value to consider diabetes induction. Ophthalmic treatment with CDO at 10 mg/ml (topical instillation of 10 μl/eye) was initiated once hyperglycemia was confirmed and continued for 28 days three times a day (TID). Rats were randomly divided in 3 groups: I. Control (non-diabetic), II. Diabetic rats with no treatment and III. Diabetic rats with CDO at 10 mg/ml. […]
RNA was isolated from each retina by using the commercial kit SV Total RNA Isolation System (Promega) and stored at −80° C. until use. Relative mRNA levels were quantified using a MX3000 (Stratagene) quantitative PCR system. […]
The qPCR system detects the fluorescence emitted by SYBR, its increase corresponds to exponential increase of the PCR product. The software calculates the threshold cycle (Ct), in which the fluorescence exceeds the background signal. Relative changes in gene expression were calculated using the ΔCt method. […] Relative expression of mRNA in the test samples were determined as fold increase compared with the control sample (non-diabetic).

[2] = system: egg chorioallantoic membrane (CAM); assay: Ocular irritation assay (HET-CAM); set-up: species or system White Leghorn chicken eggs; details: 100 mg/ml, CAM observed for 5 minutes
Description: The HET-CAM is an alternative method to the Draize Rabbit Eye Test which mimics vascular changes in the chorioallantoic membrane, an analog for ocular conjunctiva, which can be used to determine the potential irritancy of a test substance. This method is based on that described in Hen's Egg Test-Chorioallantoic Membrane (HET-CAM) Test Method (ICCVAM-Recommended Test Method Protocol, NIH Publication No. 10-7553—Published 2010)
Fertilized white SPF (special pathogen free) White Leghorn chicken eggs were incubated at 37° C. and 60% humidity up to day 10. After determination of the viability of the embryo, a rectangular window was removed from the shell directly over the air cell and the egg membrane was carefully moistened with 2-3 ml 0.9% saline. After returning to the incubator for 30 minutes, the inner membrane was removed and the test substance was applied to the CAM membrane with a pipette. Eggs were observed continuously for 5 minutes for the appearance of lysis, hemorrhage and/or coagulation and an irritation score (IS) was determined following the ICCVAM-Recommended Test Method Protocol (NIH Publication No. 10-7553-Published 2010) guideline.

[3] = Ocular tolerability of CDO in rats, clinical eye evaluation; assay type: in vivo, Diabetic SD male rats; details: CDO 100 mg/ml administered topically
Procedure: Diabetic SD male rats were treated with CDO compositions 2 and 5 of Example 1 for 28 days three times a day (topical instillation of 10 μl/eye). Clinical evaluation of the eye appearance was performed thorough the study.

[4] = optic nerve, rabbit, Oral 25 mg/Kg = 45 mg, read-out: CDO μg/g tissue Optic nerve
[5] = optic nerve, rabbit, Topical eye administration 10 mg/ml = 0.3 mg, read-out: CDO μg/g tissue Optic nerve
[6] = optic nerve, rabbit, Topical eye administration 100 mg/ml = 3.3 mg, read-out: CDO μg/g tissue Optic nerve
[7] = retina/choroid, rabbit, Oral 25 mg/Kg = 45 mg, read-out: CDO μg/g tissue Retina/Choroid
[8] = retina/choroid, rabbit, Topical eye administration 10 mg/ml = 0.3 mg, read-out: CDO μg/g tissue Retina/Choroid
[9] = retina/choroid, rabbit, Topical eye administration 100 mg/ml = 3.3 mg, read-out: CDO μg/g tissue Retina/Choroid

O=S(=O)(O)c1cc(O)ccc1O [CDO, Calcium dobesilate monohydrate] gave a concentration at 0.25 h [1, 4] of 0.74 µg/g, a concentration at 1 h [1, 4] of 1.61 µg/g and a concentration at 3 h [1, 4] of 0.49 µg/g. It also gave a concentration at 6 h [1, 4] of 0.1 µg/g, a concentration at 0.25 h [1, 5] of 0.23 µg/g and a concentration at 1 h [1, 5] of 0.76 µg/g. For the same compound, the concentration at 3 h [1, 5] was 0.65 µg/g, the concentration at 6 h [1, 5] was 0.45 µg/g and the concentration at 0.25 h [1, 6] was 14.4 µg/g. For the same compound, the concentration at 1 h [1, 6] was 22.9 µg/g, the concentration at 3 h [1, 6] was 4.5 µg/g and the concentration at 6 h [1, 6] was 1.92 µg/g. It also gave a concentration at 0.25 h [1, 7] of 0.43 µg/g, a concentration at 1 h [1, 7] of 0.95 µg/g and a concentration at 3 h [1, 7] of 0.28 µg/g. The concentration at 6 h [1, 7] was 0.12 µg/g, the concentration at 0.25 h [1, 8] was 0.27 µg/g and the concentration at 1 h [1, 8] was 0.29 µg/g. For the same compound, the concentration at 3 h [1, 8] was 0.16 µg/g, the concentration at 6 h [1, 8] was 0.11 µg/g and the concentration at 0.25 h [1, 9] was 7.88 µg/g. The concentration at 1 h [1, 9] was 6.41 µg/g, the concentration at 3 h [1, 9] was 3.47 µg/g and the concentration at 6 h [1, 9] was 1.14 µg/g. The “CDO amounts in target tissues (optic nerve and retina choroids) 6 hours after topical ocular administration” value ([1]; rabbit, 6 hours after topical ocular administration) was “could be detected”, the “values of CDO in target tissues, topical vs. single oral dose” value ([1]; rabbits, topical eye single low dose 0.3 mg vs oral 45 mg) was “equivalent to those of a single oral dose (45 mg)” and the “levels of the drug in target tissues, topical vs. single oral dose” value ([1]; rabbits, topical single dose CDO 3.3 mg vs single oral dose) was “higher levels of the drug are detected than those obtained following a single oral dose”. The “TNF-α mRNA expression of treated group vs control group (non-diabetic)” value (TNF-α mRNA) was “slightly lower than the control group”, the HET-CAM irritation characterization [2] was “not irritating” and the “HET-CAM lysis, haemorrhage or coagulation processes” value [2] was “did not trigger any lysis, haemorrhage or coagulation processes”. For the same compound, the “tolerance after topical administration” value [3] was “good tolerance”.

— patent publication US20200390729A1, “OPHTHALMIC TOPICAL COMPOSITION COMPRISING DOBESILIC ACID FOR TREATING DISEASES OF THE POSTERIOR SEGMENT OF THE EYE” (LABORATORIOS SALVAT, S.A., priority 2017, published 2020)
